pEC50: −log10 of the molar value. Like-named read-outs stand apart in the source and are kept apart here.
Tests used:
[1] = GI S9 stability - no PMSF; format: in vitro ADME; conditions: pH 7.4; human intestinal S9, PMSF-free; read-out: GIS9-HUMAN-NoPMSF T1/2
How it was run: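 Compounds were incubated at 2 μM with PMSF-free intestinal S9 (1 mg/mL protein) in 100 mM PBS, pH 7.4, sampling at 6 time points over 120 min. Parent disappearance and formation of the nucleoside metabolite Reference Compound A were quantified by LC-MS (Q-Exactive) using analyte/internal standard peak area ratios.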

[2] = GI S9 stability; format: in vitro ADME
Procedure: Example G: GI S9 Stability
Duplicate aliquots of test compound or positive control substrate (GS-7340) were added to S9 stock diluted with 100 mM phosphate buffered saline, pH 7.4, to obtain a protein concentration of 1.0 mg/mL. The S9 metabolic reactions were initiated by the addition of the substrates to the S9 reaction mixture to a final concentration of 2 μM. At 0, 10, 20, 30, 60 and 120 min, […] aliquots of the reaction mixture were transferred to plates containing […] of IS/Q solution. After quenching, the plates were centrifuged at 3000 g for 30 minutes, and 150 μL aliquots of each supernatant were diluted with 150 μL water. Aliquots ([…]) of the diluted supernatant were analyzed on a Thermo Q-Exactive mass spectrometer as described below. GI S9 Stability—No phenylmethylsulfonyl fluoride (PMSF): Similar to the procedure described above, test compounds were incubated at 2 μM with 1 mg/mL PMSF-free Intestinal S9 fractions. Samples are removed at 6 time points over the course of a 120 min experiment and the parent compound disappreance and reference compound A formation is determined by mass spectrometry.
Example K: Liquid Chromatography/Mass Spectroscopy Methods for S9 and Plasma Stability
Quantification of test compounds, Reference Compound A (S9 stability assay nucleoside metabolite), and controls was performed by analyte/internal standard peak area ratio (PAR) values measured on a Thermo Q-Exactive mass spectrometer coupled to a Dionex UltiMate 3000 HPLC with a Leap Technologies HTC PAL autosampler. The column used for analysis of test compounds and Reference Compound A was a Waters Acquity BEH C18 ([…] particle size, 2.1′50 mm). The column used for control (GS-7340) was a Thermo Hypersil GOLD ([…] particle size, 2.1′50 mm). Mobile phase A consisted of 0.1% (v/v) formic acid in water. Mobile phase B consisted of 0.1% (v/v) formic acid in acetonitrile. Elution of analytes was achieved by a series of linear gradients of acetonitrile in water containing 0.1°(v/v) formic acid. The mass spectrometer was calibrated on a weekly basis and mass tolerance of 5 ppm was used.

[3] = test system: SARS Coronavirus 2 recombinant with NanoLuc (SARS-CoV2-NLuc) in A549-hACE2 cells; assay: organism not typed; format: cell-based
[4] = CC50 MT4 cytotoxicity (Cell-Titer Glo); format: cell-based; conditions: human
How it was run: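 Uninfected MT-4 and HEp-2 cells cultured 4-5 days at 37° C with 3-fold serially diluted compound (15 nM to 100,000 nM). Viability read by Cell-Titer Glo luminescence; untreated and 2 μM puromycin wells set 100% and 0%. CC50 from non-linear regression as concentration reducing viability by 50%.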

[5] = test system: Respiratory syncytial virus recombinant with luciferase (RSV-Luc5) in Normal Human Bronchial Epithelial (NHBE) cells; assay: microbe, parasite or virus in culture; format: cell-based
[6] = test system: Caco-2 cells (clone C2BBe1); assay: CACO-2 permeability; format: in vitro ADME; parameters: unit not given here; conditions: for DM Caco2 A to B: apical to basolateral, donor pH 6.5, receiver pH 7.4; for DM Caco2 B to A: basolateral to apical
How it was run: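 Caco-2 monolayers grown 21 days on collagen-coated transwells and checked for integrity by TEER. Donor buffer was HBSS/HEPES/glucose pH 6.5 with 200 μM BNPP; receiver was pH 7.4 with BSA. Compounds were dosed apically or basolaterally for A-to-B and B-to-A transport, with receiver sampling at 1 and 2 h, LC-MS/MS analysis and percent recovery.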

[7] = test system: Respiratory syncytial virus recombinant with luciferase (RSV-Luc5) in HEp-2 cells; assay: microbe, parasite or virus in culture; format: cell-based; conditions: human respiratory syncytial virus
[8] = Plasma stability; format: in vitro ADME; parameters: unit not given here; conditions: 37° C., 2 μM substrate
How it was run: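 Reaction mixture was sampled at 0.05, 0.5, 1, 2, 3 and 4 hr into quench solution containing internal standard, then centrifuged and diluted with water. Remaining analyte was measured by LC-MS on a Q-Exactive using a formic acid/acetonitrile gradient, with 5 ppm mass tolerance.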

[9] = physchem
[10] = HEp-2, 72 h, read-out: RSV Hep2 EC50

Structure (SMILES) | half-life at 2 µM [1] [min] | half-life at 2 µM ([2]; human, s9, pH 7.4) [min] | pEC50 ([3]; 48 h, read-out: SARS-CoV2 EC50) | CC50 [4] [nM] | pEC50 ([5]; 72 h, read-out: RSV NHBE EC50) | DM Caco2 A to B [6] | DM Caco2 B to A [6] | pEC50 [7, 10] | STA Human Plasma 37 [8] | half-life at 2 µM ([2]; pH 7.4, human intestinal S9, read-out: GIS9 Human T1/2) [min] | CC50 ([4]; uninfected MT-4 cells, 4-5 days, read-out: MT4 CC50) [nM] | pEC50 ([3]; A549, read-out: EC50 SARS CoV2 NanoLuc A549 384) | pEC50 ([5]; read-out: EC50 RSVFluc-NHBE 384 V2) | pEC50 ([7]; HEp-2, read-out: EC50 RSVFluc-Hep2 384 V2) | logD [9]
CC(C)COC(=O)OC[C@H]1O[C@@](C#N)(c2ccc3c(N)ncnn23)[C@H](O)[C@@H]1O [Compound 1, ((2R,3S,4R,5R)-S-(4-aminopyrrolo[2,1-f][1,2,4]triazin-7-yl)-5-cyano-3,4-dihydroxytetrahydrofuran-2-yl)methyl isobutyl carbonate] | 1.45 | 113 | 5.73 | > 46400 | 5.66 | 0.275 | 3.853 | 6.37 | 28.434 |  |  |  |  |  | 
CC(C)COC(=O)Nc1ncnn2c([C@]3(C#N)O[C@H](COC(=O)OCC(C)C)[C@@H](O)[C@H]3O)ccc12 [Compound 2, isobutyl (7-((2R,3R,4S,5R)-2-cyano-3,4-dihydroxy-5-(((isobutoxycarbonyl)oxy)methyl)tetrahydrofuran-2-yl)pyrrolo[2,1-f][1,2,4]triazin-4-yl)carbamate] |  | 157 | < 4.30 | > 50000 | 5.02 | 1.17 | 8.69 | 5.18 | 344.3 |  |  |  |  |  | 
CC(C)(C)COC(=O)OC[C@H]1O[C@@](C#N)(c2ccc3c(N)ncnn23)[C@H](O)[C@@H]1O [Compound 3, ((2R,3S,4R,5R)-5-(4-aminopyrrolo[2,1-f][1,2,4]triazin-7-yl)-5-cyano-3,4-dihydroxytetrahydrofuran-2-yl)methyl neopentyl carbonate] | 0.8 | 81 | 6.10 | > 50000 | 5.80 | 1.23 | 9.8 | 6.26 | 82.745 |  |  |  |  |  | 
COC(=O)OC[C@H]1O[C@@](C#N)(c2ccc3c(N)ncnn23)[C@H](O)[C@@H]1O [Compound 5, ((2R,3S,4R,5R)-5-(4-aminopyrrolo[2,1-f][1,2,4]triazine-7-yl)-5-cyano-3,4-dihydroxytetrahydrofuran-2-yl)methyl methyl carbonate] | 74.8 | ≥ 789 | 4.88 | > 50000 | 5.45 |  |  | 5.54 | 1388.9 |  |  |  |  |  | 
N#C[C@@]1(c2ccc3c(N)ncnn23)O[C@H](COC(=O)Oc2ccccc2)[C@@H](O)[C@H]1O [Compound 7, ((2R,3S,4R,5R)-5-(4-aminopyrrolo[2,1-f][1,2,4]triazin-7-yl)-5-cyano-3,4-dihydroxytetrahydrofuran-2-yl)methyl phenyl carbonate] |  | 54 | 6.04 | 47400 | 5.87 | 0.52 | 8.98 | 6.38 | 6.563 |  |  |  |  |  | 
CCCOC(=O)OC[C@H]1O[C@@](C#N)(c2ccc3c(N)ncnn23)[C@H](O)[C@@H]1O [Compound 8, ((2R,3S,4R,5R)-5-(4-aminopyrrolo[2,1-f][1,2,4]triazin-7-yl)-5-cyano-3,4-dihydroxytetrahydrofuran-2-yl)methyl propyl carbonate] | 0.58 |  | 5.99 |  | 5.74 |  |  | 6.52 | 11.698 | 159 | > 50000 |  |  |  | 
N#C[C@@]1(c2ccc3c(N)ncnn23)O[C@H](COC(=O)OC2CC2)[C@@H](O)[C@H]1O [Compound 9, ((2R,3S,4R,5R)-5-(4-aminopyrrolo[2,1-f][1,2,4]triazin-7-yl)-5-cyano-3,4-dihydroxytetrahydrofuran-2-yl)methyl cyclopropyl carbonate] |  | 311 | 5.64 | > 50000 | 5.74 | 0.39 | 5.17 | 6.11 | 156.68 |  |  |  |  |  | 
COCCOC(=O)OC[C@H]1O[C@@](C#N)(c2ccc3c(N)ncnn23)[C@H](O)[C@@H]1O [Compound 10, ((2R,3S,4R,5R)-5-(4-aminopyrrolo[2,1-f][1,2,4]triazine-7-yl)-5-cyano-3,4-dihydroxytetrahydrofuran-2-yl)methyl (2-methoxyethyl) carbonate] |  | ≥ 789 | 4.85 | > 50000 | 5.52 | 0.08 | 1.39 | 5.40 | 43.569 |  |  |  |  |  | 
N#C[C@@]1(c2ccc3c(N)ncnn23)O[C@H](COC(=O)OC2CCCC2)[C@@H](O)[C@H]1O [Compound 12, ((2R,3S,4R,5R)-5-(4-aminopyrrolo[2,1-f][1,2,4]triazin-7-yl)-5-cyano-3,4-dihydroxytetrahydrofuran-2-yl)methyl cyclopentyl carbonate] |  | 58 | 5.63 | > 50000 | 5.80 | 1.15 | 13.73 | 6.18 | 35.623 |  |  |  |  |  | 
CC(C)(C)COC(=O)OC[C@H]1O[C@@](C#N)(c2ccc3c(=N)n(COP(=O)(O)O)cnn23)[C@H](O)[C@@H]1O [Compound 19, ((2R,3S,4R,5R)-5-cyano-3,4-dihydroxy-5-(4-imino-3-((phosphonooxy)methyl)-3,4-dihydropyrrolo[2,1-f][1,2,4]triazin-7-yl)tetrahydrofuran-2-yl)methyl neopentyl carbonate] |  | 27.4 | 5.11 | > 50000 | 5.27 |  |  | 5.91 | 1584 |  |  |  |  |  | 
COC(C)(C)COC(=O)OC[C@H]1O[C@@](C#N)(c2ccc3c(N)ncnn23)[C@H](O)[C@@H]1O [Compound 54, ((2R,3S,4R,5R)-5-(4-aminopyrrolo[2,1-f][1,2,4]triazin-7-yl)-5-cyano-3,4-dihydroxytetrahydrofuran-2-yl)methyl (2-methoxy-2-methylpropyl) carbonate] | 4.33 | 692 | 5.24 | > 50000 | 5.99 | 0.25 | 3.8 | 6.23 | 108 |  |  |  |  |  | 
COc1ccc(OC(=O)OC[C@H]2O[C@@](C#N)(c3ccc4c(N)ncnn34)[C@H](O)[C@@H]2O)cc1 [Compound 111, ((2R,3S,4R,5R)-5-(4-aminopyrrolo[2,1-f][1,2,4]triazin-7-yl)-5-cyano-3,4-dihydroxytetrahydrofuran-2-yl)methyl (4-methoxyphenyl) carbonate] | 3.93 | 53.1 |  | > 50000 |  | 0.625 | 11.22 |  | 35 |  |  | 5.47 | 5.89 | 6.66 | 1.5

Source: patent US12448383B2, “Compounds and methods for treatment of viral infections” (priority 2022, dated 2025)
